Laboratory results: patent US20240285660A1, “COMPOSITION FOR WOUND RELIEF AND INHIBITING A PHD PROTEIN AND METHODS OF TREATMENT” (Curapep LLC, priority 2021, published 2024)
Where “and” joins values, the source holds several entries; their conditions need not be identical. Equal values may be shown once.

Test system: HIF1-a protein in L929 cells
Assay: In vitro HIF stabilization (HIF1-a ELISA, normalized to DNA content)
Format: cell-based
Details: for level of HIF-1a compared to the negative control cells: alone, 0.01, 0.1, 1, 10 and 100 micromolar, L929 cells

SMILES: [Cl-].[Cl-].[Co+2] [CoCl2]
- HIF content increase (normalized to the DNA content) compared to the negative control: 2.21 fold and 2.16 fold

SMILES: O=c1cc(-c2ccccc2)oc2ccccc12 [Flavone, 2-phenylchromen-4-one]
- level of HIF-1a compared to the negative control cells: either a decrease of HIF-1a or the same level of HIF-1a

SMILES: O=c1c(-c2ccc(O)cc2)coc2c([C@@H]3O[C@H](CO)[C@@H](O)[C@H](O)[C@H]3O)c(O)ccc12 [Puerarin, 7-hydroxy-3-(4-hydroxyphenyl)-8-[(2S,3R,4R,5S,6R)-3,4,5-trihydroxy-6-(hydroxymethyl)oxan-2-yl]chromen-4-one]
- level of HIF-1a compared to the negative control cells: either a decrease of HIF-1a or the same level of HIF-1a
